Reference: patent US11352349B2, “Type II topoisomerase inhibitors and methods of making and using thereof” (Ohio State Innovation Foundation, priority 2017, dated 2022)
Converted amounts (≈) assume the structure as drawn. Where two headings read alike, the source gives them in different places.

Legend:
[1] = system: S. aureus ATCC 29213; test: MIC by broth microdilution (CLSI), quality control strain S. aureus ATCC 29213; assay type: cell-based, Staphylococcus aureus; conditions: multiple values when multiple MIC assays were conducted; for MIC: Staphylococcus aureus, ATCC29213, S. aureus ATCC 29213; for MIC 29213: S. aureus ATCC 29213
Experimental: Minimum inhibitory concentrations were determined using the quality control strain S. aureus ATCC 29213 (Table 1) by the broth microdilution method according to guidelines of the Clinical and Laboratory Standards Institute (CLSI) (Cockerill, F. R.; et al., 2012, Methods for dilution antimicrobial susceptibility tests for bacteria that grow aerobically; approved standard-ninth edition. MA07-A9. Clinical and Laboratory Standard Institute, Wayne, Pa.). […] Published quality control ranges for gepotidacin and ciprofloxacin were used to validate each assay. MICs for selected compounds were also determined using a USA 300 strain of MRSA (Hidron, et al., Lancet Infect. Dis. 2009, 9:384-392). Vancomycin was used as an additional control.

[2] = target: T1, Staphylococcus aureus gyrase (Staphylococcus aureus, UniProt P0A0K8+P20831); test: Staphylococcus aureus gyrase supercoiling assay; assay type: biochemical; conditions: S. aureus DNA gyrase supercoiling; read-out: Gyrase IC50
T1 construct: purchased Inspiralis, Norwich, UK
T1 sequence (P20831 whole entry): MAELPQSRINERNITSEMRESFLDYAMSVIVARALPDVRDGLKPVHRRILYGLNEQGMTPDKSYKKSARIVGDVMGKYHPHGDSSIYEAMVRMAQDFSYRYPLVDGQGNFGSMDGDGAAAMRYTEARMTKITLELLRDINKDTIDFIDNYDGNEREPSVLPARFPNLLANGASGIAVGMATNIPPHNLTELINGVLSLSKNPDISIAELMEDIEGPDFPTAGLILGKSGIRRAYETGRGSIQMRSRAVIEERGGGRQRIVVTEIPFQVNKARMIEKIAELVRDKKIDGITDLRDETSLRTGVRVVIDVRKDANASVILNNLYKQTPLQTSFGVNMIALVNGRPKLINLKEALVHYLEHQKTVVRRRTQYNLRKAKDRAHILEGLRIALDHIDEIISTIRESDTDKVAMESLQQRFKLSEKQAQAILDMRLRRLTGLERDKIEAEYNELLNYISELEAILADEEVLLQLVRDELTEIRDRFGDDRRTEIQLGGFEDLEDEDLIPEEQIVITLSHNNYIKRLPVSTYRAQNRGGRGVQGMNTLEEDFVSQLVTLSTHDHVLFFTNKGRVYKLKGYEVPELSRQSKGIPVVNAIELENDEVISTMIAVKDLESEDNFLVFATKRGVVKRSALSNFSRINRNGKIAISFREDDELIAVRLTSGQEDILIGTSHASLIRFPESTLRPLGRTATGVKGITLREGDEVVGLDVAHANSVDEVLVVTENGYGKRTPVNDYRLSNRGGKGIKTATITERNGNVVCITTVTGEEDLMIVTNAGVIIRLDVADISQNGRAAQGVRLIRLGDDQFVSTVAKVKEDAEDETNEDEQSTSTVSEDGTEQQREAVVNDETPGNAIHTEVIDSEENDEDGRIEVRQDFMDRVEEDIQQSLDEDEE
T1 sequence (P0A0K8 whole entry): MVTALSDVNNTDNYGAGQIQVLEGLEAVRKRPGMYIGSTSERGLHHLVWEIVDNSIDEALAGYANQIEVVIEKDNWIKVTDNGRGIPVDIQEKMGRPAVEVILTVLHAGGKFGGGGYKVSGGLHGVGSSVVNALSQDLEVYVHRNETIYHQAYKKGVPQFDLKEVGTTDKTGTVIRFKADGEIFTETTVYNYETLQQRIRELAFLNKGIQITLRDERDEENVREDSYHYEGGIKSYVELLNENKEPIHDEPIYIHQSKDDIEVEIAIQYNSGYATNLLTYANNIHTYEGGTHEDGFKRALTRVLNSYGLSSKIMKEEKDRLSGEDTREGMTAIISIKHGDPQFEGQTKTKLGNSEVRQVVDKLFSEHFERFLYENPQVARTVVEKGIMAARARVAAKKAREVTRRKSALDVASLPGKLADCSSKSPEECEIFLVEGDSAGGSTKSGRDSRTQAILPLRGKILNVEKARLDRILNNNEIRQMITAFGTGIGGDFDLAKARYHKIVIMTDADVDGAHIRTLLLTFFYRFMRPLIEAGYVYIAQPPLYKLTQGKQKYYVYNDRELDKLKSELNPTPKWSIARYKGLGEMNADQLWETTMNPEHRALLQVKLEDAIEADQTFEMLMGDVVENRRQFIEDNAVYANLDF
Experimental: (§1) A subset of analogs was used to assess the degree of inhibition of DNA gyrase or TopoIV (Inspiralis, Norwich, UK), both to establish the mechanism of action and to evaluate the relative balance of inhibitory activities (Table 1). A subset of compound was also assayed to determine the degree of inhibition of human topoisomerase II (Inspiralis, Norwich, UK)).
(§2) In all experiments, the activity of the enzymes was determined prior to the testing of the compounds and 1 unit (U) was defined as the amount of enzyme required to just fully supercoil, relax or decatenate the substrate (see explanation of gels). This amount of enzyme was initially used in determination of control inhibitor activity. These experiments were performed in duplicate.
(§3) For all assays the final DMSO concentration was 1%. 10 mM stocks of the compounds were serially diluted into 10% DMSO at 1 mM, 0.5 mM, 0.25 mM, 0.1 mM, 0.05 mM, 0.01 mM, 0.005 mM, 0.001 mM, 0.0005 mM, 0.0001 mM and 0.00005 mM. 3.0 μl of each dilution was added to a 30 μl assay.
(§4) Bands were visualised by ethidium staining for 20 minutes and destaining for 20 minutes. Gels were scanned using documentation equipment (GeneGenius, Syngene, Cambridge, UK) and % inhibition levels (where appropriate) were obtained with gel scanning software. (GeneTools, Syngene, Cambridge, UK)
Staphylococcus aureus gyrase supercoiling
1 U of DNA gyrase was incubated with 0.5 μg of relaxed pBR322 DNA in a 30 μl reaction at 37° C. for 30 minutes under the following conditions: 40 mM HEPES. KOH (pH 7.6), 10 mM magnesium acetate, 10 mM DTT, 2 mM ATP, 500 mM potassium glutamate and 0.05 mg/ml BSA.
Each reaction was stopped by the addition of 30 μl chloroform/iso-amyl alcohol (26:1) and 30 μl Stop Dye (40% sucrose (w/v), 100 mM Tris.HCl (pH 7.5), 10 mM EDTA, 0.5 μg/ml bromophenol blue), before being loaded on a 1.0% TAE gel run at 70V for 2 hours.

[3] = target: T2, Staphylococcus aureus Topo IV (Staphylococcus aureus, UniProt P0C1S7+P0C1U9); test: Staphylococcus aureus Topo IV decatenation assay; assay type: biochemical
T2 construct: purchased Inspiralis, Norwich, UK
T2 sequence (P0C1S7 whole entry): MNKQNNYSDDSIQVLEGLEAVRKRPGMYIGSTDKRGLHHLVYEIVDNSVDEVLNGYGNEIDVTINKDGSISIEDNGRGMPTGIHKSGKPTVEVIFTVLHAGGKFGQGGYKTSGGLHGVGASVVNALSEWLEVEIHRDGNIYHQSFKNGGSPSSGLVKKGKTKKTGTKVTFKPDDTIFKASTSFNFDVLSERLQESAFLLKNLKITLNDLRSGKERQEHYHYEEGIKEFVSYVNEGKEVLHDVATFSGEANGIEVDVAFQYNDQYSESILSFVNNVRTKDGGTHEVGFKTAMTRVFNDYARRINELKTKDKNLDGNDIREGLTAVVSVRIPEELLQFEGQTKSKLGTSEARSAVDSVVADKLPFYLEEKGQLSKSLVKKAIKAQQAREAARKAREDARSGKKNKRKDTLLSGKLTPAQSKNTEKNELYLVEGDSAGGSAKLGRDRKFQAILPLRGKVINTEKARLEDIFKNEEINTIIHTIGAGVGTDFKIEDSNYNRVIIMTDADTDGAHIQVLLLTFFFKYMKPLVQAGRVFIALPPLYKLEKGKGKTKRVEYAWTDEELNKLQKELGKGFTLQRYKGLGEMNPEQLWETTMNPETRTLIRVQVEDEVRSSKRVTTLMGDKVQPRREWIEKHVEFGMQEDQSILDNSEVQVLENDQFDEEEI
T2 sequence (P0C1U9 whole entry): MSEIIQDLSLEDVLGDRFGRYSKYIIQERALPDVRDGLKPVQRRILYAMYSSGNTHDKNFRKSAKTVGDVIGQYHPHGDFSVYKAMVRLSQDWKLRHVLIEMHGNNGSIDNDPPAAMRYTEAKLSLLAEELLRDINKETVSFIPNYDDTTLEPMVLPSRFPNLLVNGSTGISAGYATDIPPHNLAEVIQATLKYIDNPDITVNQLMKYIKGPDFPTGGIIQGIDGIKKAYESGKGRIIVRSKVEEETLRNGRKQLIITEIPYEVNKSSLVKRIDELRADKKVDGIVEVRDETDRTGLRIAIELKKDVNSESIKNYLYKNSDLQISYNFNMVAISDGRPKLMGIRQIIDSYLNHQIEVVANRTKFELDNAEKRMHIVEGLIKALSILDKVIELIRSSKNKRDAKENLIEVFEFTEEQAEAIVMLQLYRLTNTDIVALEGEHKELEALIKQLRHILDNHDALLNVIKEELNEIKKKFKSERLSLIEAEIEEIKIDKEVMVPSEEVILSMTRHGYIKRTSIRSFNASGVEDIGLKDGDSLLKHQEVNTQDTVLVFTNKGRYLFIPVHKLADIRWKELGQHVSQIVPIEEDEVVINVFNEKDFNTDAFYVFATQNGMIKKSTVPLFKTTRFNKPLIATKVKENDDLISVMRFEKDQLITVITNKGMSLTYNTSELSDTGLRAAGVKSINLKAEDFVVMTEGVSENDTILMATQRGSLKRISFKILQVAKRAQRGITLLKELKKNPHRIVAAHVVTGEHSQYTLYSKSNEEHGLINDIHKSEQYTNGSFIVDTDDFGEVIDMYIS
Experimental: as §1, §2, §3, §4
Staphylococcus aureus Topo IV Decatenation Assay
1 U of Topo IV was incubated with 200 ng kDNA DNA in a 30 μl reaction at 37° C. for 30 minutes under the following conditions: 50 mM Tris.HCl (7.5), 5 mM MgCl2, 5 mM DTT, 1.5 mM ATP, 350 mM potassium glutamate and 0.05 mg/ml BSA.
Each reaction was stopped by the addition of 30 μl chloroform/iso-amyl alcohol (26:1) and 30 μl Stop Dye, before being loaded on a 1.0% TAE gel run at 70V for 2 hours.

[4] = target: T3, human topo II (Homo sapiens, UniProt P11388); test: Topoisomerase II (alpha) decatenation assay; assay type: biochemical; conditions: activity remaining at 100 μM compound; read-out: hTopoll (% activity remaining at 100 μM)
T3 construct: purchased Inspiralis, Norwich, UK
T3 sequence (P11388 whole entry): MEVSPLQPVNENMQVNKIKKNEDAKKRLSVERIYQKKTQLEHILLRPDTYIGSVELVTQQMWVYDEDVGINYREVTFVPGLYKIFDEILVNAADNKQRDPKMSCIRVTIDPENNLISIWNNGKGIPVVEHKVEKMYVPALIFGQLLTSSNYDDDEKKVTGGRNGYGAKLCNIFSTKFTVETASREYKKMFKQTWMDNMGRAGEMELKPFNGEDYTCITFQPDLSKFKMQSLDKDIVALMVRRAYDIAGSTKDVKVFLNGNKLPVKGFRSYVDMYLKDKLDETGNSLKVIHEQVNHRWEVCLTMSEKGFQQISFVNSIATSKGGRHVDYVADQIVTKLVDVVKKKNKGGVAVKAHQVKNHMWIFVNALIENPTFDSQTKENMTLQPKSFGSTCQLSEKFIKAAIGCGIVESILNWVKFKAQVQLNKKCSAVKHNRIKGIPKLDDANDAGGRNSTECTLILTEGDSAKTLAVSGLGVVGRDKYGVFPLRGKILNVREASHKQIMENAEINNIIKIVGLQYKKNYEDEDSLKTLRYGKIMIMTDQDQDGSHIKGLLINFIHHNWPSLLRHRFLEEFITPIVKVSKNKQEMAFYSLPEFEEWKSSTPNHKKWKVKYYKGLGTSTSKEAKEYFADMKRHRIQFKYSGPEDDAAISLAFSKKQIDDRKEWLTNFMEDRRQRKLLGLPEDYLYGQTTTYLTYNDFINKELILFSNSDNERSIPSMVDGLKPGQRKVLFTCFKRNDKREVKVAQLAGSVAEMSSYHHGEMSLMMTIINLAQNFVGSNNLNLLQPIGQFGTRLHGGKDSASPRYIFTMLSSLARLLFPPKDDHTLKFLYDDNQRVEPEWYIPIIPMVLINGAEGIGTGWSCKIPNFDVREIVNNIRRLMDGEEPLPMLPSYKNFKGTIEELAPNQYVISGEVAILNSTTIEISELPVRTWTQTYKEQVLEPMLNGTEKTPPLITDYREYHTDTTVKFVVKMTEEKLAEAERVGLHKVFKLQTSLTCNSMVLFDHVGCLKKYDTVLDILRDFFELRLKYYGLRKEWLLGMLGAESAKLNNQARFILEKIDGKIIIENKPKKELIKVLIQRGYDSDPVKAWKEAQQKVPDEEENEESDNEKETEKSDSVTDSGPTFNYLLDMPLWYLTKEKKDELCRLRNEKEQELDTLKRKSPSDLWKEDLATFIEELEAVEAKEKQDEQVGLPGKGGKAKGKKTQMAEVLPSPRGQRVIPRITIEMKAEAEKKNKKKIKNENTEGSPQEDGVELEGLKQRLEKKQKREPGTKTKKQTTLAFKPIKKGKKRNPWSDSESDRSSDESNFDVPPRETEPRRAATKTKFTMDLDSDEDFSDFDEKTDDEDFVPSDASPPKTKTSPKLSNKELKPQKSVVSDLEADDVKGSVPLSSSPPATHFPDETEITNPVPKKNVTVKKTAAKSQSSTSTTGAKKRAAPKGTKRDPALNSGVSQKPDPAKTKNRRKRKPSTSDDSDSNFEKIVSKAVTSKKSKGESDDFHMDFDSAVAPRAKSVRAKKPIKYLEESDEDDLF
Experimental: as §1, §2, §3, §4
Topoisomerase II (Alpha) Decatenation Assay
Each reaction was stopped by the addition of 30 μl chloroform/iso-amyl alcohol (26:1) and 30 μl Stop Dye, before being loaded on a 1.0% TAE gel run at 90V for 2 hours.

[5] = system: USA 300 strain of MRSA; test: MIC by broth microdilution, USA 300 strain of MRSA; assay type: cell-based, Staphylococcus aureus; conditions: Staphylococcus aureus, multiple values when multiple MIC assays were conducted, read-out: MIC USA300
Experimental: Minimum inhibitory concentrations were determined using the quality control strain S. aureus ATCC 29213 (Table 1) by the broth microdilution method according to guidelines of the Clinical and Laboratory Standards Institute (CLSI) (Cockerill, F. R.; et al., 2012, Methods for dilution antimicrobial susceptibility tests for bacteria that grow aerobically; approved standard-ninth edition. MA07-A9. Clinical and Laboratory Standard Institute, Wayne, Pa.). […] MICs for selected compounds were also determined using a USA 300 strain of MRSA (Hidron, et al., Lancet Infect. Dis. 2009, 9:384-392). Vancomycin was used as an additional control.

[6] = S. aureus Topo IV decatenation, read-out: TopolV Decat IC50

## COc1ccc2ncc(=O)n(CC[C@H]3OC[C@H](NCc4ccc5c(c4)OCCO5)CO3)c2c1 [AB-0002, 1-(2-(5-(((2,3-dihydrobenzo[b][1,4]dioxin-6-yl)methyl)amino)-1,3-trans-dioxan-2-yl)ethyl)-7-methoxyquinoxalin-2(1H)-one]
[1]
  MIC: 4 µg/mL (≈ 8.82 µM)
[2]
  IC50: 2010 nM
[3]; [6]
  IC50: > 100000 nM
[4]
  remaining activity at 100 µM: 97.5%

## COc1ccc2nccc(/C=C/[C@H]3OC[C@H](NCc4ccc5c(c4)OCCO5)CO3)c2c1 [AB-0010, N-((2,3-dihydrobenzo[b][1,4]dioxin-6-yl)methyl)-2-((E)-2-(6-methoxyquinolin-4-yl)vinyl)-trans-1,3-dioxan-5-amine]
[1]
  MIC 29213: 2 µg/mL (≈ 4.6 µM)
  MIC: 1 µg/mL (≈ 2.3 µM)
[5]
  MIC: 1 µg/mL (≈ 2.3 µM)

## COc1ccc2nccc(CC[C@H]3OC[C@H](NCc4ccc5c(c4)OCCO5)CO3)c2c1 [AB-0011, N-((2,3-dihydrobenzo[b][1,4]dioxin-6-yl)methyl)-2-(2-(6-methoxyquinolin-4-yl)ethyl)-trans-1,3-dioxan-5-amine]
[5]
  MIC: 0.5 µg/mL (≈ 1.15 µM)
[2]
  IC50: 100 nM
[3]
  IC50: 13800 nM
[4]
  remaining activity at 100 µM: 84.2%

## COc1ccc2nccc(CC[C@H]3OC[C@H](NCc4ccc(Cl)c(Cl)c4)CO3)c2c1 [AB-0012, N-(3,4-dichlorobenzyl)-2-(2-(6-methoxyquinolin-4-yl)ethyl)-trans-1,3-dioxan-5-amine]
[5]
  MIC: 0.5 µg/mL (≈ 1.12 µM)
[2]
  IC50: 280 nM
[3]; [6]
  IC50: > 100000 nM
[4]
  remaining activity at 100 µM: 93.2%

## COc1ccc2nccc(CC[C@H]3OC[C@H](NCc4cc5c(cn4)OCCO5)CO3)c2c1 [AB-0013, N-((2,3-dihydro-[1,4]dioxino[2,3-c]pyridin-7-yl)methyl)-2-(2-(6-methoxyquinolin-4-yl)ethyl)-trans-1,3-dioxan-5-amine]
[1]
  MIC 29213: 2 µg/mL (≈ 4.57 µM)
  MIC: 1 µg/mL (≈ 2.29 µM)
[5]
  MIC: 2 µg/mL (≈ 4.57 µM)
[2]
  IC50: 360 nM
[3]; [6]
  IC50: 50000 nM
[4]
  remaining activity at 100 µM: 95.1%

## COc1ccc2nccc(CC[C@H]3OC[C@H](NCc4cc5c(cn4)OCCC5)CO3)c2c1 [AB-0014, N-((3,4-dihydro-2H-pyrano[2,3-c]pyridin-6-yl)methyl)-2-(2-(6-methoxyquinolin-4-yl)ethyl)-trans-1,3-dioxan-5-amine]
[1]
  MIC: 1 µg/mL (≈ 2.3 µM)
[5]
  MIC: 2 µg/mL (≈ 4.59 µM)
[2]
  IC50: 330 nM
[3]; [6]
  IC50: 25000 to 50000 nM
[4]
  remaining activity at 100 µM: 93.8%

## COc1ccc2ncc(F)c(CC[C@H]3OC[C@H](NCc4ccc(Cl)c(Cl)c4)CO3)c2n1 [AB-0017, N-(3,4-dichlorobenzyl)-2-(2-(3-fluoro-6-methoxy-1,5-naphthyridin-4-yl)ethyl)-trans-1,3-dioxan-5-amine]
[1]
  MIC: 0.25 µg/mL (≈ 0.536 µM)
[5]
  MIC: 0.125 µg/mL (≈ 0.268 µM)

## COc1ccc2ncc(F)c(C(O)C[C@H]3OC[C@H](NCc4ccc(Cl)c(Cl)c4)CO3)c2c1 (stereo partly drawn) [AB-0019, 2-(5-((3,4-dichlorobenzyl)amino)-trans-1,3-dioxan-2-yl)-1-(3-fluoro-6-methoxyquinolin-4-yl)ethan-1-ol]
[1]
  MIC: ≤ 0.25 µg/mL
[5]
  MIC: 0.5 µg/mL (≈ 1.04 µM)

## COc1ccc2nccc(CC[C@H]3OC[C@H](NCc4ccc(F)c(Cl)c4)CO3)c2c1 [AB-0023, N-(3-chloro-4-fluorobenzyl)-2-(2-(6-methoxyquinolin-4-yl)ethyl)-trans-1,3-dioxan-5-amine]
[1]
  MIC: 8 µg/mL (≈ 18.6 µM)
[2]
  IC50: 2100 nM
[3]; [6]
  IC50: > 100000 nM
[4]
  remaining activity at 100 µM: 97.7%

## COc1ccc(CN[C@H]2CO[C@H](CCc3ccnc4ccc(OC)cc34)OC2)cc1 [AB-0031, N-(4-methoxybenzyl)-2-(2-(6-methoxyquinolin-4-yl)ethyl)-trans-1,3-dioxan-5-amine]
[1]
  MIC: 4 µg/mL (≈ 9.79 µM)
[2]
  IC50: 1530 nM
[3]; [6]
  IC50: > 100000 nM
[4]
  remaining activity at 100 µM: 98.7%

## COc1ccc2nccc(CC[C@H]3OC[C@H](NCc4ccc(C)cc4)CO3)c2c1 [AB-0044]
[1]
  MIC: 1 µg/mL (≈ 2.55 µM)
[5]
  MIC: 1 µg/mL (≈ 2.55 µM)

## COc1ccc2ncc(F)c(C(O)C[C@H]3OC[C@H](NCc4cc5c(cn4)OCCO5)CO3)c2c1 (stereo partly shown) [AB-0046]
[1]
  MIC: 0.5 µg/mL (≈ 1.06 µM)
[5]
  MIC: 1 µg/mL (≈ 2.12 µM)
[2]
  IC50: 600 nM
[4]
  remaining activity at 100 µM: 88.3%

## COc1ccc2nccc(CC[C@H]3OC[C@H](NCc4ccc(C#N)cc4)CO3)c2c1 [AB-0047, 4-(((2-(2-(6-methoxyquinolin-4-yl)ethyl)-trans-1,3-dioxan-5-yl)amino)methyl)benzonitrile]
[1]
  MIC: > 64 µg/mL
[2]
  IC50: 13300 nM
[3]; [6]
  IC50: > 100000 nM
[4]
  remaining activity at 100 µM: 88.4%

## COc1ccc2nccc(CC[C@H]3OC[C@H](NCc4ccc(C(F)(F)F)cc4)CO3)c2c1 [AB-0071, 2-(2-(6-methoxyquinolin-4-yl)ethyl)-N-(4-(trifluoromethyl)benzyl)-trans-1,3-dioxan-5-amine]
[1]
  MIC: 1 µg/mL (≈ 2.24 µM)
[5]
  MIC: 2 µg/mL (≈ 4.48 µM)

## COc1ccc2ncc(=O)n(CC(O)[C@H]3OC[C@H](NCc4cc5c(cn4)OCCO5)CO3)c2c1 (stereo partly drawn) [AB-0077, 1-(2-(5-(((2,3-dihydro-[1,4]dioxino[2,3-c]pyridin-7-yl)methyl)amino)-trans-1,3-dioxan-2-yl)-2-hydroxyethyl)-7-methoxyquinoxalin-2(1H)-one]
[1]
  MIC: 1 µg/mL (≈ 2.13 µM)
[5]
  MIC: 2 µg/mL (≈ 4.25 µM)

## COc1ccc2nccc(CC[C@H]3OC[C@H](NCc4ccc5c(c4)OCO5)CO3)c2c1 [AB-0079, N-(benzo[d][1,3]dioxol-5-ylmethyl)-2-(2-(6-methoxyquinolin-4-yl)ethyl)-trans-1,3-dioxan-5-amine]
[1]
  MIC: 2 µg/mL (≈ 4.73 µM)
[5]
  MIC: 4 µg/mL (≈ 9.47 µM)

## COc1ccc2nccc(CC[C@H]3OC[C@H](NCc4ccc5c(c4)OC(F)(F)O5)CO3)c2c1 [AB-0080, N-((2,2-difluorobenzo[d][1,3]dioxol-5-yl)methyl)-2-(2-(6-methoxyquinolin-4-yl)ethyl)-trans-1,3-dioxan-5-amine]
[1]
  MIC: 1 µg/mL (≈ 2.18 µM)
[5]
  MIC: 2 µg/mL (≈ 4.36 µM)

## COc1ccc2nccc(CC[C@H]3OC[C@H](NCc4ccc(OC(F)(F)F)cc4)CO3)c2c1 [AB-0081, 2-(2-(6-methoxyquinolin-4-yl)ethyl)-N-(4-(trifluoromethoxy)benzyl)-trans-1,3-dioxan-5-amine]
[1]
  MIC: 2 µg/mL (≈ 4.32 µM)
[5]
  MIC: 4 µg/mL (≈ 8.65 µM)

## COc1ccc2nccc(CC[C@H]3OC[C@H](NCc4ccc(C(C)(C)C)cc4)CO3)c2c1 [AB-0082, N-(4-(tert-butyl)benzyl)-2-(2-(6-methoxyquinolin-4-yl)ethyl)-trans-1,3-dioxan-5-amine]
[1]
  MIC: 2 µg/mL (≈ 4.6 µM)
[5]
  MIC: 4 µg/mL (≈ 9.2 µM)

## COc1ccc2ncc(F)c(C(O)C[C@H]3OC[C@H](NCc4cc5c(cn4)OCCO5)CO3)c2n1 (stereo partly drawn) [AB-0083, 2-(5-(((2,3-dihydro-[1,4]dioxino[2,3-c]pyridin-7-yl)methyl)amino)-trans-1,3-dioxan-2-yl)-1-(3-fluoro-6-methoxy-1,5-naphthyridin-4-yl)ethanol]
[1]
  MIC: 0.5 µg/mL (≈ 1.06 µM)
[5]
  MIC: 1 µg/mL (≈ 2.12 µM)

## COc1ccc2nccc(CC[C@H]3OC[C@H](NCc4ccc(C(F)F)cc4)CO3)c2c1 [AB-0085, N-(4-(difluoromethyl)benzyl)-2-(2-(6-methoxyquinolin-4-yl)ethyl)-trans-1,3-dioxan-5-amine]
[1]
  MIC: 2 µg/mL (≈ 4.67 µM)
[5]
  MIC: 4 µg/mL (≈ 9.34 µM)
